Measured values published in paper PMC12238850, “Molecular determinants for recognition of serotonylated chromatin” (Nucleic Acids Research, 2025).
Where two headings read alike, the source gives them in different places.

Target: T1, BPTF(2) PHD (2865–2921, GST-tagged) (Homo sapiens, UniProt Q12830)
T1 construct: BPTF(2) (2865–2921); made in house; host or cells: E. coli BL21(DE3)
Assay: ITC of GST-tagged BPTF(2) PHD
Type: binding
Source text: The coding sequences of Mus musculus Taf3-PHD domain (residues 857–924) and Homosapiens PHF2 (1–66), PHF8 (37–102), and BPTF(2) (2865–2921) were cloned into the pGEX2T-derived vector, pRP265NB, for bacterial expression of GST-tagged proteins. Note that the PHD fingers of M. musculus Taf3 and H. sapiens TAF3 differ in a single amino acid. A901 in mouse corresponds to T899 in human. Here, amino acid numbering corresponds to mouse Taf3 isoform 1 with UniProt ID: Q5HZG4, accessible at https://www.uniprot.org/uniprotkb/Q5HZG4/entry. Single or double mutations were introduced by mutagenesis polymerase chain reaction and validated by Sanger sequencing. A single colony of freshly transformed BL21(DE3) Escherichia coli bacteria with the corresponding construct was grown in Luria broth (LB) medium supplemented with 50 μg/ml ampicillin until an OD600 of 0.7. […]
ITC experiments were performed at 20°C with a MicroCal VP-ITC microcalorimeter (Malvern) by sequential injection of 10 μl at 300 μM histone peptide during 20 s into the sample cell containing 30 or 15 μM of GST-Taf3 (wild type or mutant) or GST-BPTF, GST-PHF2, and GST-PHF8 PHDs in ITC buffer (100 mM NaCl, 20 mM Tris–HCl, pH 7.5). […] ITC data were subsequently analysed and fitted with the one-site binding model in the MicroCal ITC Origin Analysis software 7.0 (Table 1, Figs 3B and 5A, Supplementary Table S3, and Supplementary Fig. S10). […]

| Kd (ITC, 20°C, 100 mM NaCl, 20 mM Tris–HCl, pH 7.5, one-site model, ± = standard error of fit, read-out: K D) [nM] | SMILES | Kd [nM] |
| --- | --- | --- |
|  | C[C@H](N)C(=O)N[C@@H](CCCNC(=N)N)C(=O)N[C@H](C(=O)N[C@@H](CCCC[N+](C)(C)C)C(=O)N[C@@H](CCC(=O)NCCc1c[nH]c2ccc(O)cc12)C(=O)N[C@H](C(=O)N[C@@H](C)C(=O)N[C@@H](CCCNC(=N)N)C(=O)N[C@@H](CCCCN)C(=O)N[C@@H](CO)C(=O)N[C@H](C(=O)NCC(N)=O)[C@@H](C)O)[C@@H](C)O)[C@@H](C)O [H3K4me3Q5ser] | 1240 ± 50 |
| 1300 ± 49 | C[C@H](N)C(=O)N[C@@H](CCCNC(=N)N)C(=O)N[C@H](C(=O)N[C@@H](CCCC[N+](C)(C)C)C(=O)N[C@@H](CCC(N)=O)C(=O)N[C@H](C(=O)N[C@@H](C)C(=O)N[C@@H](CCCNC(=N)N)C(=O)N[C@@H](CCCCN)C(=O)N[C@@H](CO)C(=O)N[C@H](C(=O)NCC(N)=O)[C@@H](C)O)[C@@H](C)O)[C@@H](C)O [H3K4me3] |  |
